# Assay results reported in patent publication US7000348B2, “Method and composition for tree root colonization” (Vamtech, LLC, priority 2003, dated 2006).
# Entries after “also recorded” stand apart in the source; their conditions may differ.
# Tests used:
# Type in all cases: in vivo
# [1] = system: Ponderosa pine seedlings; assay: Foliar nutrient analysis of Ponderosa pine needles; details: 60 mg/L, vs seedlings treated with R. rubescens alone
# Description: (§1) Ponderosa pine seeds were sown in a soilless mix (50:50 peat:vermiculite) in 2 cm^3 cells in STRYOBLOCK™ containers (Beaver Plastics, Corvallis, Oreg.) inside the greenhouse at the J. Herbert Stone Nursery in Central Point, Oreg. Eight weeks after germination, all emerging ponderosa pine seedlings were inoculated with 100,000 spores each of the ectomycorrhizal fungus R. rubescens using a liquid suspension applied via a traveling irrigation boom. Liquid spore suspension was prepared by maceration of R. rubescens sporocarps in distilled water for 10 min, followed by serial dilution with distilled water. Spore concentrations were determined using a hemacytometer. Soluble fertilizer (250 ppm N, 60 ppm P and 158 ppm K plus micronutrients) was applied with irrigation for optimum growth. Temperatures were held between 65° F. and 75° F. in the greenhouse. […]
# (§2) The diameter of all seedlings in all of the treatments was then measured with a caliper. […] Samples were analyzed for total nitrogen and phosphorus (Kjeldahl digest with ammonia and orthophosphate read on an auto-analyzer), and extractable potassium (microwave digestion) with inductively couples argon plasma spectrometer (ICPMS).
# (§3) All trials were conducted in a randomized complete block design. […] Means comparisons were calculated using Fisher's LSD (least significant difference). […]
# [2] = system: Ponderosa pine seedlings; assay: Caliper diameter of Ponderosa pine seedlings; details: potassium formononetinate 60 mg/L added to R. rubescens inoculation
# Description: as §1, §2, §3
# [3] = system: Douglas-fir seedlings; assay: Foliar nutrient analysis of Douglas-fir needles
# Excerpt: (§4) Douglas-fir seeds were sown in 2 cm^3 in cells in Stryoblock™ containers filled with soilless mix (50:50 peat:vermiculite) in the greenhouse at the J. Herbert Stone Nursery in Central Point, Oreg. Soluble fertilizer applications, temperatures, and hardening off procedure were the same as those described for Ponderosa pine above. No pesticides were used on the crop during this period, and no mycorrhizal inoculum was applied prior to applications of treatments.
# Eight months after sowing, fourteen Douglas-fir seedlings were randomly sampled (2 or 3 from 6 trays) to determine colonization by the mycorrhizal fungus R. parksii. No colonization by R. parksii was present at this time. The treatments applied to three trays of 20 seedlings each were a control with no potassium formononetinate or mycorrhizal inoculation (C), potassium formononetinate only at 20 mg/L of soilless mix (M-20), mycorrhizal inoculation only at 100,000 R. parksii spores/cavity applied with a graduated pipette (R-100), mycorrhizal inoculation with R. parksii at 100,000 spores per cavity plus potassium formononetinate at 20 mg/L of soilless mix (0.11 per 60 seedlings) (M-20+R-100), mycorrhizal inoculation with R. parksii at 100,000 spores per cavity plus potassium formononetinate at 60 mg/L of soilless mix (0.33 per 60 seedlings) (M-60+R-100), and mycorrhizal inoculation with R. parksii at 50,000 spores cavity plus potassium formononetinate at 20 mg/L of soilless mix (M-20+R-50). Potassium formononetinate was provided by VAMTech L.L.C., Lansing, Mich.
# The diameter of all seedlings in all of the treatments was then measured with a caliper. Needle samples for Ponderosa pine and Douglas-fir were collected from 4 randomly selected seedlings in each treatment for foliar analysis. Samples were analyzed for total nitrogen and phosphorus (Kjeldahl digest with ammonia and orthophosphate read on an auto-analyzer), and extractable potassium (microwave digestion) with inductively couples argon plasma spectrometer (ICPMS).
# All trials were conducted in a randomized complete block design. Analyses of variance (ANOVA) were performed separately for seedling caliper, nutrient content, and mycorrhizal colonization (Steel and Torrie 1980). Means comparisons were calculated using Fisher's LSD (least significant difference). Residuals from the performed ANOVA's were examined using normal probability plots, tests that the residuals come from normal distributions and plots of residuals versus predicted values. Before analysis, mycorrhizal colonization data as logarithmically transformed to compensate for log-normally distributed values (Steel and Torrie 1980).
# [4] = system: Douglas-fir seedlings; assay: Caliper diameter of Douglas-fir seedlings
# Excerpt: as §4
# (§5) Eight months after sowing, fourteen Douglas-fir seedlings were randomly sampled (2 or 3 from 6 trays) to determine colonization by the mycorrhizal fungus R. parksii. No colonization by R. parksii was present at this time. […]
# as §2, §3
# [5] = system: R. parksii; assay: Mycorrhizal colonization of Douglas-fir roots by Rhizopogon (root tip tally)
# Excerpt: as §4, §5, §3
# [6] = system: R. rubescens; assay: Mycorrhizal colonization of Ponderosa pine seedlings by Rhizopogon (root tip tally); details: potassium formononetinate 60 mg/L with R. rubescens spores vs spores alone
# Description: as §1, with “greenhouse. The seedlings were hardened off about six months after sowing by reducing the amount of irrigation water and fertilizer in it (to 50 ppm N, 31 ppm P and 150 ppm K plus micronutrients). No pesticides were used on the crop during this period. Ponderosa pine seedlings were then each inoculated again with 100,000 spores of R. rubescens using the same inoculation procedure.” for “greenhouse.”
# as §3
# [7] = M = potassium formononetinate mg/L, R = R. parksii spores x1000 per cavity
# [8] = R. parksii and potassium formononetinate, over the untreated control, but not over R. parksii alone
smiles,measurement,setting,value
"COc1ccc(-c2coc3cc([O-])ccc3c2=O)cc1.[K+] [potassium formononetinate, potassium salt of 7-hydroxy, 4′-methoxy isoflavone]","nitrogen content, Ponderosa pine (effect in words)",[1],significantly increased
same,"caliper diameter, Ponderosa pine (effect in words)",[2],not significantly increased; also recorded: not significantly affected
same,"potassium content, Douglas-fir (effect in words)","[3]; 60 mg/L plus R. parksii, vs untreated plants, R. parksii alone and any other treatment",significantly higher
same,"foliar nitrogen content, Douglas-fir needles",[3]; [7],1.29%
same,"foliar phosphorous content, Douglas-fir needles",[3]; [7],0.15%
same,"nitrogen content, Douglas-fir (effect in words)",[3]; [8],significantly increased
same,"phosphorus content, Douglas-fir (effect in words)",[3]; [8],significantly increased
same,"caliper diameter, Douglas-fir","[4]; thirteen months after sowing, M = potassium formononetinate mg/L, R = R. parksii spores x1000 per cavity",0.2 cm
same,"caliper size, Douglas-fir (effect in words)","[4]; vs untreated control, R. parksii alone or plus potassium formononetinate",increased caliper size over the control
same,"root colonization by Rhizopogon, Douglas-fir (effect in words)",[5]; potassium formononetinate 60 mg/L with R. parksii spores,significantly increased
same,Mycorrhizal colonization of Douglas-fir roots by R. parksii,"[5]; thirteen months after sowing, M-20/M-60 = potassium formononetinate 20/60 mg/L of soilless mix, R-100/R-50 = 100,000/50,000 R. parksii spores per cavity",0%
same,"root colonization by Rhizopogon, Ponderosa pine (effect in words)",[6],significantly increased
